According to US8980925B2, “Antimicrobial amphiphiles and methods for their use” (James Madison Innovations, Inc., priority 2010, dated 2015):

Experiments:
[1] = tested on: Escherichia coli ATCC® 25922™; assay: Broth microdilution MIC and MBC, E. coli; format: cell-based; settings: 37° C., 72 h, MBC and MIC values identical
Description: (§1) S. aureus and E. faecalis are Gram-positive pathogens, P. aeruginosa is a Gram-negative pathogen, and E. coli is a non-pathogenic Gram-negative organism.
(§2) The broth microdilution for determining the MIC and MBC of antimicrobial compounds was performed as previously described in Wayne, supra. Briefly, all compounds were serially diluted and 100 μl of each dilution was added to microtiter plate wells in triplicate. Overnight cultures of bacterial cells were diluted to a final inoculum of approximately 5×10^6 cfu/mL, and 100 μl of this suspension was added to all wells yielded 5×10^5 cfu/well. Cell concentrations and viability were verified by serial dilution and plating for each experiment. […] The MBC was determined as the lowest concentration of compound at which there were no colonies growing on the plate.
(§3) MIC values for the compounds of the invention were determined by the broth microdilution method as described herein. […] After microtiter plates were incubated and MICs determined, aliquots from each of the wells were placed on TSA plates and incubated to determine the MBC values for each of the compounds. The MBC was determined as the lowest concentration of compound at which there were no colonies growing on the plate. […] SDS was used for comparison in these studies.

[2] = tested on: Staphylococcus aureus subsp. aureus ATCC® 29213™; assay: Broth microdilution MIC and MBC, S. aureus; format: cell-based; settings: 37° C., 72 h, MBC and MIC values identical
Description: as §1, §2, §3

[3] = tested on: Pseudomonas aeruginosa strain Boston 41501 ATCC® 27853™; assay: Broth microdilution MIC and MBC, P. aeruginosa; format: cell-based; settings: 37° C., 72 h, MBC and MIC values identical
Description: as §1, §2, §3

[4] = tested on: Entercoccus faecalis ATCC® 29212™; assay: Broth microdilution MIC and MBC, E. faecalis; format: cell-based; settings: 37° C., 72 h, MBC and MIC values identical
Description: as §1, §2, §3

[5] = tested on: Staphylococcus aureus subsp. aureus ATCC® 29213™; settings: 100 μM of compound, […]10^6 cfu/ml, room temperature, up to 72 h
Source text: (§4) Bacterial strains Staphylococcus aureus subsp. aureus ATCC® 29213™, Entercoccus faecalis ATCC® 29212™, Escherichia coli ATCC® 25922™, and Pseudomonas aeruginosa strain Boston 41501 ATCC® 27853™ were obtained from the American type Culture Collection (ATCC, Manassas, Va., USA). S. aureus and E. faecalis are Gram-positive pathogens, P. aeruginosa is a Gram-negative pathogen, and E. coli is a non-pathogenic Gram-negative organism. All strains are reference strains for the Clinical and Laboratory Standards Institute (CLSI) for antimicrobial susceptibility testing of nonfastidious bacteria, and were grown in Mueller-Hinton broth at 37° C. as recommended (Wayne, Pa. National Committee for Clinical Laboratory Standards (2009) Methods for Dilution Antimicrobial Tests for Bacteria That Grow Aerobically—Approved Standard M07-A8).
(§5) Compounds were added to the cultures to a final concentration of 100 μM, and tubes were incubated at room temperature. […] Data reported are times when no colonies were observed growing on plates after overnight incubation.

[6] = tested on: Escherichia coli ATCC® 25922™; settings: 100 μM of compound; for time when all cells were killed, E. coli (G−): […]10^6 cfu/ml, room temperature, up to 72 h
Source text: as §4, §5

[7] = tested on: Entercoccus faecalis ATCC® 29212™; settings: 100 μM of compound, […]10^6 cfu/ml, room temperature, up to 72 h
Source text: as §4, §5

Row | Molecule | MICs and MBCs, E. coli (G−) [1] [µM] | MICs and MBCs, S. aureus (G+) [2] [µM] | MICs and MBCs, P. aeruginosa (G−) [3] [µM] | MICs and MBCs, E. faecalis (G+) [4] [µM] | time when all cells were killed, S. aureus (G+) [5] [h] | time necessary to kill […]10^6 cfu/mL, E. coli [6] [min] | time when all cells were killed, E. coli (G−) [6] [h] | time when all cells were killed, E. faecalis (G+) [7] [h]
1 | 1-hexadecyloxy-3,5-bis[(trimethlammonoum bromide)methyl]benzene [3,5-C16 (10)] | 63 | 16 | >63 | 31 | 0.25 | ≤ 15 | 0.25 | 0.25
2 | 1-tetradecyloxy-2,5-bis(4,4′-bipyridinium)benzene, bis-bromide salt [2,5-C14dipyr (41)] | 16 | 16 | 125 | 31 |  |  |  | 
3 | CCCCCCCCCCCCOS(=O)(=O)[O-].[Na+] [SDS (13), SDS, reference compound] | >500 | 250 | >500 | 500 |  |  |  | 
4 | [(2-tetradecyloxy-m-phenylene)dimethylene]bis[trimethylamonium bromide] [2,6-C14 (8)] | 125 | 16 | 500 | 50 | 48 |  |  | 
5 | [(2-tetradecyloxy-o-phenylene)dimethylene]bis[trimethylamonium bromide] [2,3-C14 (1)] | 63 | 6 | 125 | 31 | 1 |  | 0.5 | 24
6 | [(5-tetradecyloxy-m-phenylene)dimethylene]bis[trimethylamonium bromide] [3,5-C14 (9)] | 31 | 8 | >63 | 31 | 1 |  | 1 | 1
7 | [(6-tetradecyloxy-m-phenylene)dimethylene]bis[trimethylamonium bromide] [2,4-C14 (2)] | 31 | 6 | 125 | 16 | 1 |  | 1 | 2
